These results are taken from patent publication US9700052B2, “Methods and compositions comprising steroid honey bee feeding inhibitors” (Iowa State University Research Foundation, Inc., priority 2015, dated 2017).

The test has as its system honey bees, Apis mellifera. In words: Artificial styrofoam flower foraging assay with 20% sucrose nectar tube. The test is classed as in vivo. As to conditions: for Consumed, ml (nectar) / # feeding: n = 4. On the procedure: To determine how the phytoecdysteroid inhibits bee foraging, we utilized artificial flowers so that the compounds can be added to a nectar source or sprayed on the surface of the artificial flower. The artificial flowers were made from green florist styrofoam blocks (12 cm^2) and petals made from blue and green tape. In the center of the styrofoam block a 2 ml test tube was inserted that contained a 20% sucrose solution in water as a substitute for nectar. The same array of holders was used as in the previous study (FIG. 2).
To determine if the repellent activity occurs in a concentration dependent manner we utilized the artificial flowers treated with various concentrations of the steroids in the nectar tube. In addition to observing the number of honey bees feeding from the nectar tube we measured the amount of nectar consumed after the observation period of about 45 min. The purified phytoecdysteroid was effective at 2.5 and 0.4 mg/ml in reducing the number of honey bees feeding on the nectar compared to lower concentrations. […] The pure 20-OH-ecdysone was also inhibitory at 1 mg/ml and 0.2 mg/ml with more foraging at the lower concentration. Cucurbitacin B was inhibitory at 0.5 mg/ml but not at 0.1 mg/ml.

The mark [1] stands for this setting: 0.01 mg/ml in 2 ml nectar tube, about 45 min.
Where [2] appears, read: 0.01 mg/ml in nectar tube, about 45 min.
Where [3] appears, read: 0.1 mg/ml in 2 ml nectar tube, about 45 min.
The mark [4] stands for this setting: 0.1 mg/ml in nectar tube, about 45 min.

For the compound `CC(C)(O)CC[C@@H](O)[C@](C)(O)[C@H]1CC[C@@]2(O)C3=CC(=O)[C@@H]4C[C@@H](O)[C@@H](O)C[C@]4(C)[C@H]3CC[C@]12C` [20-hydroxyecdysone], the “Consumed, ml (nectar)” value came to 1.1 mL under setting [1]; 1.7 mL under setting [3]; 0.25 mL (0.2 mg/ml in 2 ml nectar tube, about 45 min); 0.05 mL (1 mg/ml in 2 ml nectar tube, about 45 min). Also, the “# feeding” value by setting is: under setting [2], 37; under setting [4], 56; (0.2 mg/ml in nectar tube, about 45 min) 17; (1 mg/ml in nectar tube, about 45 min) 2. In addition, the “inhibition of honey bees feeding on the nectar” value (from here on “inhibition of honey bees feeding”) is “inhibitory” (0.2 mg/ml in nectar tube) and “inhibitory” (1 mg/ml in nectar tube).
`CC(=O)OC(C)(C)/C=C/C(=O)[C@](C)(O)[C@H]1C(O)C[C@@]2(C)[C@@H]3CC=C4[C@H](CC(O)C(=O)C4(C)C)[C@@]3(C)C(=O)C[C@]12C` (stereo partly drawn) [Cucurbitacin B]: the “Consumed, ml (nectar)” value is 1.9 mL under setting [1]; 1.2 mL under setting [3]; 0.3 mL (0.5 mg/ml in 2 ml nectar tube, about 45 min). The “# feeding” value worked out at 4 under setting [2]; 3 under setting [4]; 8 (0.5 mg/ml in nectar tube, about 45 min). For the same compound, the “inhibition of honey bees feeding” value runs as follows: (0.1 mg/ml in nectar tube) “not”; (0.5 mg/ml in nectar tube) “inhibitory”.
Regarding `C[C@H]([C@H](O)CCC(C)(C)O)[C@H]1CC[C@@]2(O)C3=CC(=O)[C@@H]4C[C@@H](O)[C@@H](O)C[C@]4(C)[C@H]3CC[C@]12C` [Pure ecdsyone, ecdysone], the “inhibition of honey bees feeding” value is, setting by setting: (0.01 mg/ml in nectar tube) “not”; (0.1 mg/ml in nectar tube) “inhibitory”; (1 mg/ml in nectar tube) “inhibitory”. The “Consumed, ml (nectar)” value runs as follows: (Table 5, 0.01 mg/ml in 2 ml nectar tube) 0.8 mL; (Table 5, 0.1 mg/ml in 2 ml nectar tube) 0.3 mL; (Table 5, 1 mg/ml in 2 ml nectar tube) 0.2 mL. Besides, the “# feeding” value turned out to be 24 (Table 5, 0.01 mg/ml in nectar tube); 0 (Table 5, 0.1 mg/ml in nectar tube); 0 (Table 5, 1 mg/ml in nectar tube).
